pIC50: −log10 of the molar value.
Target: T1, ScPma1p (yeast plasma membrane ATPase 1) (Saccharomyces cerevisiae, UniProt P05030)
T1 construct: gene PMA1
Assay: cell-free vesicle-based ATP hydrolysis assay (ScPma1p-overexpressing vesicles, phosphate release)
Assay type: biochemical

T1 sequence (P05030 whole entry): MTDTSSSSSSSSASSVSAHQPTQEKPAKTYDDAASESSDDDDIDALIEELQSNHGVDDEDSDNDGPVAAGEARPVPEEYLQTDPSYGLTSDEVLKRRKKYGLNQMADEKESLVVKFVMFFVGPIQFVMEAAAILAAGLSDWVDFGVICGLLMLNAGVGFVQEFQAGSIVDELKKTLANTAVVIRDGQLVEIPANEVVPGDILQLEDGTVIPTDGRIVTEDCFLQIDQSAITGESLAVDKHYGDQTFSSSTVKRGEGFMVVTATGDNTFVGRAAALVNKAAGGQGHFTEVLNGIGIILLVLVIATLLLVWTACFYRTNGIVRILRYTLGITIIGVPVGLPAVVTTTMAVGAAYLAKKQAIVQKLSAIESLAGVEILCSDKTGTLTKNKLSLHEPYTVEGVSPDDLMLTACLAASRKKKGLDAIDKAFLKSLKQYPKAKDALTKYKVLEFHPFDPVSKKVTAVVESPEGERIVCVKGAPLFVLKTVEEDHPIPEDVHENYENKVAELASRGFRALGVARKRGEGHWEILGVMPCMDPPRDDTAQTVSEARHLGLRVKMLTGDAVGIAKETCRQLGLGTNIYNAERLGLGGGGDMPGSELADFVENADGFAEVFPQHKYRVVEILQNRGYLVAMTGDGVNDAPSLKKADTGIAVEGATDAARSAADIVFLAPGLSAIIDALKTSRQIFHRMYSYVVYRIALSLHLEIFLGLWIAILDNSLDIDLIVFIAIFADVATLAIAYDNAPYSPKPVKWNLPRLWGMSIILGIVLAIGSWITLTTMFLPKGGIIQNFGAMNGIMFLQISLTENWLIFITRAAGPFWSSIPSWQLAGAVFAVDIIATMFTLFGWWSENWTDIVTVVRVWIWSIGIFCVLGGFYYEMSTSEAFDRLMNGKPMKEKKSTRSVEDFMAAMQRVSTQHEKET

`Cn1ncc2c(Nc3cccc(Cl)c3)nc(Nc3cccc(Cl)c3)nc21` [NSC11668, 4-N,6-N-bis(3-chlorophenyl)-1-methylpyrazolo[3,4-d]pyrimidine-4,6-diamine] showed a pIC50 of 5.36.

From publication PMC5820243, “Two inhibitors of yeast plasma membrane ATPase 1 (ScPma1p): toward the development of novel antifungal therapies” (Journal of Cheminformatics, 2018)
